In US5331094A, “Purified active somatostatin receptor” (American Cyanamid Company, priority 1992, dated 1994):
Blank lines part the entries; values can stand above or below the molecule they belong to. Bridge positions count the residues as written; N and C are the ends. Square brackets hold non-standard residues; d marks the D form. Peptide text beside a SMILES is read from it. * marks the point of attachment. Biotin = O=C1N[C@H]2[C@H](CS[C@H]2CCCCC(=O)*)N1; Tyr(3-I) = N[C@@H](Cc1ccc(O)c(I)c1)C(=O)O; Ahx = NCCCCCC(=O)O

Assays:
Parameters in all cases: species or system rat
SRIF receptor [1] = assay: Competitive radioligand binding assay with [125I]Tyr11-S14 and GH4 C1 membranes; conditions: for IC50: vs [125I]Tyr11-S14, 20 ug GH4 C1 membrane protein, 100,000 cpm radioligand (FIG. 1B)
Method: (§1) 1. Standard Binding Assays--Binding assays are done in a binding buffer containing 50 mM HEPES (pH 7.4), 0.5% BSA and 5 mM MgCl2. The standard assay for [^125 I]SRIF analog binding to GH4 C1 membranes, done in 96 well microtiter plates (Dynataech Immulon II Removawell plates), is carried out as follows: 1. Radioligand is diluted in binding buffer+ PMSF/Baci to the desired cpm per vol. of 50 μl and then 50 μl aliquots are added to the wells. For non-specific binding samples, 5 μl of 40 μM cold S14 is also added per well. 2. Binding is initiated by adding 150 μl per well of membrane diluted to the desired concentration (10-30 ug membrane protein/well) in binding buffer+ PMSF/Baci. Plates are then covered with Linbro mylar plate sealers (Flow Labs) and placed on a Dynatech Microshaker II and binding is allowed to proceed at room temperature for 1-2 hours. Binding is stopped by centrifuging the plate for 15 minutes at 2,000×g. The supernatants are dumped off and membrane pellets washed once by addition of 200 μl of ice cold binding buffer, brief shaking and recentrifugation. Finally the individual wells are placed in 12×75 mm tubes and counted in an LKB Gammamaster counter (78% efficiency). Specific binding by this method is identical to that measured when free ligand is removed by rapid (3-5 seconds) filtration and washing on polyethyleneimine-coated glass fiber filters.
2. competitive radioligand binding assays with a concentration range of cold ligand vs. [^125 I]SRIF are carried out as described above with one modification. All dilutions of SRIF analogs being assayed are made in 40×PMSF/Baci to a concentration 40× the final concentration in the assay. This gives very consistent results with a wide variety of SRIF structural analogs over a wide range of dilutions. 5 ul samples of peptide are then added per microtiter well. Membranes and radioligand are diluted out in binding buffer without protease inhibitors. Radioligand is added and mixed with cold peptides and then binding is initiated by addition of membranes.
These assays are carried out as described in "Methods: Receptor Binding Methods, 2". […] Therefore the Bio-6C-S14, Bio-12C-S14 and Bio-S28analogs are preferably synthesized. In Bio-S28, amino acid residues 1-14 are considered a spacer since residues 15-28 are equivalent to an S14 analog, having all the necessary structure for high affinity binding. The three spacer-containing biotinyl SRIFs show receptor binding activity similar to that of S14 (FIG. 1B; assays contained 20 ug of GH 4 C1 membrane protein and 100,000 cpm of radioligand). The IC50 s and relative potencies are S14 (0.2 nM)>Bio-S28(0.3 nM) >Bio-6C-S14 (2 nM)>Bio-12C-S14 (2 nM).

SRIF receptor [2] = assay: Scatchard analysis of binding of [125I]-labelled SRIF analogs to GH4 C1 membranes; conditions: GH4 C1 membranes (FIG. 2), read-out: dissociation constant (KD)
Method: as §1
Because Bio-C6-S14, Bio-C12-S14 and Bio-S28 all contain tyrosine residues, it is possible to prepare their [^125 I] labelled analogs and carry out Scatchard analyses of their binding affinities relative to [^125 I]Tyr11-S14 (FIG. 2). As shown in the figure, the [^125 I]-labelled peptides fall in the same order of potency as their non-labelled forms. The dissociation constants (KDs) and relative binding affinities are [^125 I]Tyr11-S14 (0.1 nM)>[^125 I]Bio-S28 (0.2 nM)>[^125I]Bio-6C-S14 (0.3 nM)>[^125 I]Bio-12C-S14 (0.4 nM).

SRIF receptor [3] = assay: Lectin affinity binding (WGA-agarose) of solubilized receptor:[125I]Tyr11-S14 complex; conditions: for A/B, GFB/PEI filters: Recovery of soluble R:L complex
Method: 4. Larger scale binding assays to obtain membrane pellets for studies on solubilization of receptor: ligand complex and for receptor purification are also carried out. These are identical to the standard assays except that: (a) Binding is carried out in polypropylene tubes in volumes from 1-250 ml, (b) Concentration of membrane protein is always 0.5 mg/ml, (c) For receptor purification, BSA concentration in the binding buffer is reduced to 0.25% and the wash step is done with binding buffer without BSA. This is to reduce BSA contamination of the purified receptor.
H. Assay of Solubilized Receptors--After binding of [^125 I]SRIF analogs and solubilization of the membranes with detergent, the intact R:L complex could be assayed by four different methods (all carried out on ice or in a cold room at 4°-10° C.): (1) Column chromatography (Knuhtsen et al., Biochem. J. 254:641-647, 1988). Sephadex G-50 columns (8×250 mm) are equilibrated with solubilization buffer containing detergent at the concentration used to solubilize membranes and 1 mg/ml bovine serum albumin. 0.2-0.5 ml samples of solubilized membranes are applied to the columns and eluted at a flow rate of about 0.7 ml/minute. 0.18 ml samples are collected. Radioactivity is determined in a gamma counter as described under "Receptor Binding Methods". Void volumes of the columns are determined by the elution volume of blue dextran. Radioactivity eluting in the void volume (>50,000 MW) was considered bound to protein. Radioactivity eluting later, at the same volume as free [^125 I]SRIF, is considered non-bound. (2) Polyethyleneglycol precipitation (Cuatrecasas, PNAS USA 69:318-322, 1972) For a 100 ul sample of solubilized membranes in a 12×75 mm polypropylene tube, 0.5 ml of 1% (w/v) bovine gamma globulin (Sigma) in 0.1M sodium phosphate buffer is added, followed by 0.5 ml of 25% (w/v) polyethyleneglycol (Sigma) and mixing. The mixture is held on ice for 15 minutes. Then 3 ml of 0.1M sodium phosphate (pH 7.4) is added per sample and the samples are rapidly (1-3 seconds) filtered over Whatman GF/B glass fiber filters and washed with 4 ml of the phosphate buffer. PEG precipitated SRIF receptor:[^125 I]SRIF complex is determined by gamma counting of the filters. (3) GFB/PEI filter binding (Bruns et al., Analytical Biochem. 132:74-81, 1983). Whatman GF/B glass fiber filters are soaked in 0.3% polyethyleneimine (PEI, Sigma) for 3 hours. 25-100 ul samples of solubilized membranes are replaced in 12×75 mm polypropylene tubes. Then 4 ml of solubilization buffer (without detergent) is added per sample and the samples are immediately filtered through the GFB/PEI filters (1-3 seconds) and washed with 4 ml of solubilization buffer. CPM of SRIF receptor:[^125 I]SRIF complex adsorbed to filters are determined by gamma counting. (4) Charcoal/Dextran (Paul and Said, Peptides 7[Suppl. 1]:147-149, 1986). 0.5 gm of Dextran T70 (Pharmacia) is dissolved in 1 liter of water and then 5 gm of activated charcoal (Norit A, alkaline; Fisher Scientific) is added. The suspension is stirred for 10 minutes at room temperature and then stored at 4° C. until use. To measure R:L complex, 4 parts by volume of charcoal/dextran suspension are added to 1 part by volume of solubilized membrane. The samples are mixed and held on ice for 2 minutes and then centrifuged for 2 minutes at 11,000×g in a Beckman microfuge. Free radioligand is adsorbed charcoal/dextran and is discarded with the pellet. SRIF receptor:[^125 I]SRIF complex remain in the supernatant and is determined by gamma counting.
A. Solubilized Receptor: [^125 I]Tyr11-S14 Complex-Binding of [^125 I][…] to GH4 C1 membranes is carried out as in "Receptor Binding Methods. 4". Binding incubations contain 0.5 mg/ml membrane protein and 6×10^6 cpm/ml of [^125 I]Tyr11-S14. Solubilization of membranes in 0.15% deoxycholate:lysolecithin is also as previous described. […]

[4] = Sample: 100,000 x g supernatant
[5] = Sample: Eluted from WGA-agarose
[6] = Sample: Non-bound to WGA-agarose

IC50 (SRIF receptor [1]): 2 nM
Molecule: C[C@H](NC(=O)CCCCCNC(=O)CCCC[C@@H]1SC[C@@H]2NC(=O)N[C@@H]21)C(=O)NCC(=O)N[C@H]1CSSC[C@@H](C(=O)O)NC(=O)[C@H](CO)NC(=O)[C@H]([C@@H](C)O)NC(=O)[C@H](Cc2ccc(O)cc2)NC(=O)[C@H]([C@@H](C)O)NC(=O)[C@H](CCCCN)NC(=O)[C@H](Cc2c[nH]c3ccccc23)NC(=O)[C@H](Cc2ccccc2)NC(=O)[C@H](Cc2ccccc2)NC(=O)[C@H](CC(N)=O)NC(=O)[C@H](CCCCN)NC1=O [Bio-6C-S14, Biotinyl-[NH--(CH2)5 --CO]--NH-(Tyr11)SRIF14] ({Biotin-Ahx}-AGCKNFFWKTYTSC-OH; disulfide 3-14)

Kd (SRIF receptor [2]): 0.1 nM | A/B, GFB/PEI filters (SRIF receptor [3]; 100,000 x g supernatant): 11.3 | A/B, GFB/PEI filters (SRIF receptor [3]; Eluted from WGA-agarose): 33.7 | A/B, GFB/PEI filters (SRIF receptor [3]; Non-bound to WGA-agarose): 2.9 | A/B (total/non-specific) (SRIF receptor [3]; [4]): 8.2 | CPM of [125I]Tyr11-S14, A. Total (SRIF receptor [3]; [4]): 104,420 CPM | CPM of [125I]Tyr11-S14, B. Non-Specific (SRIF receptor [3]; [4]): 12,756 CPM | A/B (total/non-specific) (SRIF receptor [3]; Sample: Bound to WGA-agarose): 22.1 | CPM of [125I]Tyr11-S14, A. Total (SRIF receptor [3]; Sample: Bound to WGA-agarose): 69,889 CPM | CPM of [125I]Tyr11-S14, B. Non-Specific (SRIF receptor [3]; Sample: Bound to WGA-agarose): 3,157 CPM | A/B (total/non-specific) (SRIF receptor [3]; [5]): 23.0 | CPM of [125I]Tyr11-S14, A. Total (SRIF receptor [3]; [5]): 58,925 CPM | CPM of [125I]Tyr11-S14, B. Non-Specific (SRIF receptor [3]; [5]): 2,524 CPM | A/B (total/non-specific) (SRIF receptor [3]; Sample: Membranes): 5.3 | CPM of [125I]Tyr11-S14, A. Total (SRIF receptor [3]; Sample: Membranes): 151,848 CPM | CPM of [125I]Tyr11-S14, B. Non-Specific (SRIF receptor [3]; Sample: Membranes): 28,812 CPM | A/B (total/non-specific) (SRIF receptor [3]; [6]): 2.4 | CPM of [125I]Tyr11-S14, A. Total (SRIF receptor [3]; [6]): 23,112 CPM | CPM of [125I]Tyr11-S14, B. Non-Specific (SRIF receptor [3]; [6]): 9,624 CPM
Molecule: C[C@H](N)C(=O)NCC(=O)N[C@H]1CSSC[C@@H](C(=O)O)NC(=O)[C@H](CO)NC(=O)[C@H]([C@@H](C)O)NC(=O)[C@H](Cc2ccc(O)c(I)c2)NC(=O)[C@H]([C@@H](C)O)NC(=O)[C@H](CCCCN)NC(=O)[C@H](Cc2c[nH]c3ccccc23)NC(=O)[C@H](Cc2ccccc2)NC(=O)[C@H](Cc2ccccc2)NC(=O)[C@H](CC(N)=O)NC(=O)[C@H](CCCCN)NC1=O [[^125 I]Tyr11-S14] (H-AGCKNFFWKT[Tyr(3-I)]TSC-OH; disulfide 3-14 (inferred); N-terminus and C-terminus assumed)

The next lines start with the molecule.

Molecule: CC(C)C[C@H](NC(=O)[C@H](C)NC(=O)[C@@H]1CCCN1C(=O)[C@H](CC(N)=O)NC(=O)[C@H](CO)NC(=O)[C@H](CC(N)=O)NC(=O)[C@H](C)NC(=O)[C@H](CO)NC(=O)CCCC[C@@H]1SC[C@@H]2NC(=O)N[C@@H]21)C(=O)N[C@@H](C)C(=O)N1CCC[C@H]1C(=O)N[C@@H](CCCNC(=N)N)C(=O)N[C@@H](CCC(=O)O)C(=O)N[C@@H](CCCNC(=N)N)C(=O)N[C@@H](CCCCN)C(=O)N[C@@H](C)C(=O)NCC(=O)N[C@H]1CSSC[C@@H](C(=O)O)NC(=O)[C@H](CO)NC(=O)[C@H]([C@@H](C)O)NC(=O)[C@H](Cc2ccc(O)cc2)NC(=O)[C@H]([C@@H](C)O)NC(=O)[C@H](CCCCN)NC(=O)[C@@H](Cc2c[nH]c3ccccc23)NC(=O)[C@H](Cc2ccccc2)NC(=O)[C@H](Cc2ccccc2)NC(=O)[C@H](CC(N)=O)NC(=O)[C@H](CCCCN)NC1=O [Bio-S28, Biotinyl-NH-(Leu8, D-Trp22, Tyr25)SRIF28] (Biotin-SANSNPALAPRERKAGCKNFF[dW]KTYTSC-OH; disulfide 17-28 (inferred); C-terminus assumed)
IC50 (SRIF receptor [1]): 0.3 nM

Molecule: Biotinyl-NH-SRIF14 [Biotinyl-NH-S14]
potency relative to S14 in the competitive binding assay (SRIF receptor [1]; FIG. 1A, 40 ug GH4 C1 membrane protein, 85,000 cpm radioligand): about 1.5%

Molecule: C[C@H](NC(=O)CCCCCNC(=O)CCCCCNC(=O)CCCC[C@@H]1SC[C@@H]2NC(=O)N[C@@H]21)C(=O)NCC(=O)N[C@H]1CSSC[C@@H](C(=O)O)NC(=O)[C@H](CO)NC(=O)[C@H]([C@@H](C)O)NC(=O)[C@H](Cc2ccc(O)cc2)NC(=O)[C@H]([C@@H](C)O)NC(=O)[C@H](CCCCN)NC(=O)[C@H](Cc2c[nH]c3ccccc23)NC(=O)[C@H](Cc2ccccc2)NC(=O)[C@H](Cc2ccccc2)NC(=O)[C@H](CC(N)=O)NC(=O)[C@H](CCCCN)NC1=O [Bio-12C-S14, Biotinyl-[NH-(CH2)5 -CO]2 -NH-(Tyr11)SRIF14] ({Biotin-Ahx-Ahx}-AGCKNFFWKTYTSC-OH; disulfide 3-14 (inferred); C-terminus assumed)
IC50 (SRIF receptor [1]): 2 nM

Molecule: C[C@H](N)C(=O)NCC(=O)N[C@H]1CSSC[C@@H](C(=O)O)NC(=O)[C@H](CO)NC(=O)[C@H]([C@@H](C)O)NC(=O)[C@H](Cc2ccccc2)NC(=O)[C@H]([C@@H](C)O)NC(=O)[C@H](CCCCN)NC(=O)[C@H](Cc2c[nH]c3ccccc23)NC(=O)[C@H](Cc2ccccc2)NC(=O)[C@H](Cc2ccccc2)NC(=O)[C@H](CC(N)=O)NC(=O)[C@H](CCCCN)NC1=O [S14, reference compound]
IC50 (SRIF receptor [1]): 0.2 nM
